Read-outs that look alike come from different tables or passages of the source.

The record followed here is patent publication US8513221B2, “PI3K isoform selective inhibitors” (Xcovery Holding, LLC, priority 2008, dated 2013).

One assay addresses T1, PI3Kδ (Homo sapiens, UniProt O00329).
T1 construct: purchased Ambit Biosciences (San Diego, Calif., USA); host or cells: T7 phage in BL21-derived E. coli, or HEK-293
T1 sequence (O00329 1-1044): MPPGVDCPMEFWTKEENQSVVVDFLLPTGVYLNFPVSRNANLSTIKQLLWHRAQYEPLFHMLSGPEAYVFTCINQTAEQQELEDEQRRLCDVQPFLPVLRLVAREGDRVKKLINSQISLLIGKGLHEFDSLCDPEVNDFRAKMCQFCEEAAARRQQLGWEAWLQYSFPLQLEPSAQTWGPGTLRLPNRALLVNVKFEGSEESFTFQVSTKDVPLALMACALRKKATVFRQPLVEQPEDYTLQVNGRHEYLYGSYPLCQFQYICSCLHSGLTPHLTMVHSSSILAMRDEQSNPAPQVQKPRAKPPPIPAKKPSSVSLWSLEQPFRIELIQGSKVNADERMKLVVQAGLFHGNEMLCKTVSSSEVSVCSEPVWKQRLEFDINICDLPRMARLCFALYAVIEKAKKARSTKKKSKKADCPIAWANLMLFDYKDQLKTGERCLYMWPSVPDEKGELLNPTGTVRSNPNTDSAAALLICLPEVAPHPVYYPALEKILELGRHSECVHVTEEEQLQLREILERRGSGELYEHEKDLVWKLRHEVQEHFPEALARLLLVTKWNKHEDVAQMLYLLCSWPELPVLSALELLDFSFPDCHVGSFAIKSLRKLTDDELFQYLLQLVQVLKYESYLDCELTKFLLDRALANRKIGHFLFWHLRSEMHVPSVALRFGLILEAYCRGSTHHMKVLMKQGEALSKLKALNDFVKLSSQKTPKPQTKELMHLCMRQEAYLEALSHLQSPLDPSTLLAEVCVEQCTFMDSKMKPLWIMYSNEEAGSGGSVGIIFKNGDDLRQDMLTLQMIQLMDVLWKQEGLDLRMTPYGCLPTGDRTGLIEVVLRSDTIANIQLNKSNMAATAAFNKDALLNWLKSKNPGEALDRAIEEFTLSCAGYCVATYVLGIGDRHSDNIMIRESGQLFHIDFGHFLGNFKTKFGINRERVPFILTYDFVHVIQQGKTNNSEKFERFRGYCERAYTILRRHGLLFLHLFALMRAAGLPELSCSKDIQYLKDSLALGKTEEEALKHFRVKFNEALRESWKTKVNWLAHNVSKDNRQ
The assay can be described thus: Ambit Biosciences kinase competition binding assay, PI3Kδ. As for the experimental part:
Kinase assays. For most assays, kinase-tagged T7 phage strains were grown in parallel in 24-well blocks in an E. coli host derived from the BL21 strain. E. coli were grown to log-phase and infected with T7 phage from a frozen stock (multiplicity of infection ˜0.1) and incubated with shaking at 32° C. until lysis (˜90 minutes). The lysates were centrifuged (6,000×g) and filtered ([…]) to remove cell debris. The remaining kinases were produced in HEK-293 cells and subsequently tagged with DNA for qPCR detection. […] The liganded beads were blocked with excess biotin and washed with blocking buffer (SeaBlock (Pierce), 1% BSA, 0.05% Tween 20, 1 mM DTT) to remove unbound ligand and to reduce non-specific phage binding. […] Test compounds were prepared as 40× stocks in 100% DMSO and directly diluted into the assay. All reactions were performed in polypropylene 384-well plates in a final volume of 0.04 ml. […] The kinase concentration in the eluates was measured by qPCR.
Compounds were tested using the above assay at Ambit Biosciences (San Diego, Calif., USA).

The target in a further assay is T2, PI3Kα (Homo sapiens, UniProt P42336).
T2 construct: purchased Ambit Biosciences (San Diego, Calif., USA); host or cells: T7 phage in BL21-derived E. coli, or HEK-293
T2 sequence (P42336 whole entry): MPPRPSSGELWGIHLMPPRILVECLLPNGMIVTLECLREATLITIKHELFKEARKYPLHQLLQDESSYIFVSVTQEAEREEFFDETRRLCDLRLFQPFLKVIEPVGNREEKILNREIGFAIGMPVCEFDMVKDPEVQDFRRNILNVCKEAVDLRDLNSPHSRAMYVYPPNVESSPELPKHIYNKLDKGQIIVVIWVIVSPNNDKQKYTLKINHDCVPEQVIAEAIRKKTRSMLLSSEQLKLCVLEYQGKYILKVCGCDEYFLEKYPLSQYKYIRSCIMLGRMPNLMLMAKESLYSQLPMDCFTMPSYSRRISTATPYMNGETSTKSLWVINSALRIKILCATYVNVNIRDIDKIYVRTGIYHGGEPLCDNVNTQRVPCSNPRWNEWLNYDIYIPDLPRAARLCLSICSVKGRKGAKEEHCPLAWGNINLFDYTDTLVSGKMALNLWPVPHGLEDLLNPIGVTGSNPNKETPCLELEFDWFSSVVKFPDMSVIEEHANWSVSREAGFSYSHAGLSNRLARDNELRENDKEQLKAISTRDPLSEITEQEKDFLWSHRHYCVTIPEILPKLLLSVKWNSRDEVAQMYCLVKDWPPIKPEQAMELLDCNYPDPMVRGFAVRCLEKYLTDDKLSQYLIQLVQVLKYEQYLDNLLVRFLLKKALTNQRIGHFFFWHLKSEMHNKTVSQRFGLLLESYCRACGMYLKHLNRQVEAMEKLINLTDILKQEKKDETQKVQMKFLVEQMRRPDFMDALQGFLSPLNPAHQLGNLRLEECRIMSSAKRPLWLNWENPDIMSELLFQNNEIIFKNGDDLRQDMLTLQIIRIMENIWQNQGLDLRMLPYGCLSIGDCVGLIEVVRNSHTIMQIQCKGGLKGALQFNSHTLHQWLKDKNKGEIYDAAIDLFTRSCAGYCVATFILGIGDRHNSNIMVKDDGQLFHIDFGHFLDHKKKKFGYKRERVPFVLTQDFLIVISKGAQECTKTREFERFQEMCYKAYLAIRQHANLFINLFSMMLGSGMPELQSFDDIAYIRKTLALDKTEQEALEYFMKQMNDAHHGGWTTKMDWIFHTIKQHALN
Briefly: Ambit Biosciences kinase competition binding assay, PI3Kα. The following applies: read-out: inhibitory activity against other isoforms: PI3Kα. How it is done: (§1) Assays were performed as described in Fabian et al. (2005) Nature Biotechnology, vol. 23, p. 329 and in Karaman et al. (2008) Nature Biotechnology, vol. 26, p. 127.
(§2) Kinase assays. For most assays, kinase-tagged T7 phage strains were grown in parallel in 24-well blocks in an E. coli host derived from the BL21 strain. E. coli were grown to log-phase and infected with T7 phage from a frozen stock (multiplicity of infection ˜0.1) and incubated with shaking at 32° C. until lysis (˜90 minutes). The lysates were centrifuged (6,000×g) and filtered ([…]) to remove cell debris. The remaining kinases were produced in HEK-293 cells and subsequently tagged with DNA for qPCR detection. Streptavidin-coated magnetic beads were treated with biotinylated small molecule ligands for 30 minutes at room temperature to generate affinity resins for kinase assays. The liganded beads were blocked with excess biotin and washed with blocking buffer (SeaBlock (Pierce), 1% BSA, 0.05% Tween 20, 1 mM DTT) to remove unbound ligand and to reduce non-specific phage binding. Binding reactions were assembled by combining kinases, liganded affinity beads, and test compounds in 1× binding buffer (20% SeaBlock, 0.17× PBS, 0.05% Tween 20, 6 mM DTT). Test compounds were prepared as 40× stocks in 100% DMSO and directly diluted into the assay. […] The kinase concentration in the eluates was measured by qPCR. […]

The next assay addresses T3, PI3Kβ (Homo sapiens, UniProt P42338).
T3 construct: purchased Ambit Biosciences (San Diego, Calif., USA); host or cells: T7 phage in BL21-derived E. coli, or HEK-293
Briefly: Ambit Biosciences kinase competition binding assay, PI3Kβ. The following applies: read-out: inhibitory activity against other isoforms: PI3Kβ. As for the experimental part: as §1, §2

A further assay concerns the target T4, PI3Kγ (Homo sapiens, UniProt P48736).
T4 construct: purchased Ambit Biosciences (San Diego, Calif., USA); host or cells: T7 phage in BL21-derived E. coli, or HEK-293
The assay can be described thus: Ambit Biosciences kinase competition binding assay, PI3Kγ. The following applies: read-out: inhibitory activity against other isoforms: PI3Kγ. How it is done: as §1, §2

In a further assay the target is T5, mTor (Homo sapiens, UniProt P42345).
T5 construct: purchased Invitrogen Corp. (Madison, Wis., USA)
Briefly: Z′-LYTE biochemical assay for mTor. Conditions: at up to 1 μM. How it is done:
The Z′-LYTE® biochemical assay for mTor The mTor kinase activity was assessed using the Z′-LYTE® biochemical assay of Invitrogen Corp. (Madison, Wis., USA).

T3 sequence (P42338 whole entry): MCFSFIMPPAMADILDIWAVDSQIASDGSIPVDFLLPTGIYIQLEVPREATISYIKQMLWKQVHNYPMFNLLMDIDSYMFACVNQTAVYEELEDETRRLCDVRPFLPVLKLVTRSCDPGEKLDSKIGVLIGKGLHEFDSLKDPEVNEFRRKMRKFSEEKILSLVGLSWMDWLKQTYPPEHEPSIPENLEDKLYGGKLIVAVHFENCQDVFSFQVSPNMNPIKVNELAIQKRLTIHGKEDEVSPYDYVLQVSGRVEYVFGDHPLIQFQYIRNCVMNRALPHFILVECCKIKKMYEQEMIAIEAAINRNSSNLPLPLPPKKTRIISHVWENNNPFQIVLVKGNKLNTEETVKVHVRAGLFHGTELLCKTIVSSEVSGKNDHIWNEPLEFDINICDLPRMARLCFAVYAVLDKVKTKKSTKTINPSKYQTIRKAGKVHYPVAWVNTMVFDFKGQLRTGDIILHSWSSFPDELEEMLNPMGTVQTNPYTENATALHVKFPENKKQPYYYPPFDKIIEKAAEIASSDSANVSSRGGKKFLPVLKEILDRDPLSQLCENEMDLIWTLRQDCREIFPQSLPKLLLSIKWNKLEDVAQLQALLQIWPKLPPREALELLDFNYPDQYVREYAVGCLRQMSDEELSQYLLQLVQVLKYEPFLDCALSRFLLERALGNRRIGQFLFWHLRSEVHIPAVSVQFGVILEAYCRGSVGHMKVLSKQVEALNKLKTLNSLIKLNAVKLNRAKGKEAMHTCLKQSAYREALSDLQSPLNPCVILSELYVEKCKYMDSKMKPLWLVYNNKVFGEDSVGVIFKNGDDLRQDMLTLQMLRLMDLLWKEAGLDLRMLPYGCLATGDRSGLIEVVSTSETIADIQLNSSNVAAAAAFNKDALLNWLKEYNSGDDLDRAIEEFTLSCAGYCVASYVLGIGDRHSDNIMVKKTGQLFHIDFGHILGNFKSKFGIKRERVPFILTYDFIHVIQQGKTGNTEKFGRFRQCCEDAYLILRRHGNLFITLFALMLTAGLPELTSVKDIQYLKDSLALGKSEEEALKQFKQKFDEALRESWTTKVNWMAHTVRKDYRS
T4 sequence (P48736 whole entry): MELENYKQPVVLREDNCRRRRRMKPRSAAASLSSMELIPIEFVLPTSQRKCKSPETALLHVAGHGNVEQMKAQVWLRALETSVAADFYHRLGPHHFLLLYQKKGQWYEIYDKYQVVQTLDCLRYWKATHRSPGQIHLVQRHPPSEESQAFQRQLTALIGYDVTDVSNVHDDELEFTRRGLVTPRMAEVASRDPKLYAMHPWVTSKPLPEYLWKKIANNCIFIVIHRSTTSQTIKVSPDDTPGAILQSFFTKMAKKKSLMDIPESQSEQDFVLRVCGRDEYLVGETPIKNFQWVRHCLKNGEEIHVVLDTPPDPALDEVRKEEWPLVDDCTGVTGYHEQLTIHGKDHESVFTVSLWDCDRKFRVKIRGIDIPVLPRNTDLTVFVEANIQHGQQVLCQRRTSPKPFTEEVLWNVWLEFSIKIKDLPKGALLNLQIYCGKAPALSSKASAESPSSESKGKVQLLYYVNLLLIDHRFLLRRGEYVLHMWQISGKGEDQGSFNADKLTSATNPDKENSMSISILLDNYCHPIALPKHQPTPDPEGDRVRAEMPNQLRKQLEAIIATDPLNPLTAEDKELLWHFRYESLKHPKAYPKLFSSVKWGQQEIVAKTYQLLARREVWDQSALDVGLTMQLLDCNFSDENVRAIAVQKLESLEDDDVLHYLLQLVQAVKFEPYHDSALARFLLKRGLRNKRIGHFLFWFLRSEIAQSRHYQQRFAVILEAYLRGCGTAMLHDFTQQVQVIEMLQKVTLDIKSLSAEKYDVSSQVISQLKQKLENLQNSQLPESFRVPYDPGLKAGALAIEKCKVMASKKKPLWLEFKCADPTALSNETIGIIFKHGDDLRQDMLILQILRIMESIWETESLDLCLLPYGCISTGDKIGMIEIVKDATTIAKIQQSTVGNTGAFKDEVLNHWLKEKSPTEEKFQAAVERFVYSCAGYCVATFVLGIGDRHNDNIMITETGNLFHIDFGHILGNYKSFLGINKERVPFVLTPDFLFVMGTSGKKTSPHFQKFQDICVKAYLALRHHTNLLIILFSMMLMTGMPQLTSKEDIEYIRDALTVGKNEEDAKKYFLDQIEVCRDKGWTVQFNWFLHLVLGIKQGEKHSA

Regarding `CS(=O)(=O)N1CCN(CCn2cnc3c(-n4c(C(F)F)nc5ccccc54)nc(N4CCOCC4)nc32)CC1` [Example 14, 6-(2-difluoromethyl-benzoimidazol-1-yl)-9-[2-(4-methanesulfonyl-piperazin-1-yl)-ethyl]-2-morpholin-4-yl-9H-purine], the IC50 at PI3Kδ (read-out: inhibition against PI3Kδ (IC50)) is below 30 nM; on PI3Kα it was above 100 nM; at PI3Kβ, above 100 nM; at PI3Kγ it was above 100 nM.

Turning to `OCCn1cnc2c(-n3c(C(F)F)nc4ccccc43)nc(N3CCOCC3)nc21` [Example 28, 2-{6-[2-(difluoromethyl)benzimidazol-1-yl]-2-morpholin-4-ylpurin-9-yl}ethan-1-ol], the IC50 at PI3Kδ is below 30 nM; at PI3Kα, above 100 nM; on PI3Kβ, above 100 nM; on PI3Kγ, above 100 nM. For the same compound, the mTor kinase inhibition result at mTor is given as “did not significantly inhibit”.
